PubChem BioAssay (NCI)
Values joined by “and” are separate entries in the source; they are usually repeats but may differ in a detail not shown here. Identical values can stand only once.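 Where inhibition never reached the appropriate level, the endpoint shown equals the highest concentration tested. Otherwise, values were interpolated linearly from a five-concentration, 48-hour dose response in 96-well plates. At the GI50, growth is halved. TGI marks complete inhibition of growth.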

Columns and labels:
Assay in all cases: inhibition of tumour cell growth, NCI panel, 48 h
786-0 renal = test system: 786-0 renal
A498 renal = test system: A498 renal
BT-549 breast = test system: BT-549 breast
HCT-15 colon = test system: HCT-15 colon
KM12 colon = test system: KM12 colon
MALME-3M melanoma = test system: MALME-3M melanoma
NCI-H23 lung = test system: NCI-H23 lung
SNB-75 CNS = test system: SNB-75 CNS
SW-620 colon = test system: SW-620 colon
UO-31 renal = test system: UO-31 renal

| Compound | TGI (786-0 renal) | TGI (A498 renal) | TGI (BT-549 breast) | TGI (HCT-15 colon) [µM] | TGI (KM12 colon) [µM] | TGI (MALME-3M melanoma) | TGI (NCI-H23 lung) | TGI (SNB-75 CNS) | TGI (SW-620 colon) [µM] | TGI (UO-31 renal) | GI50 (786-0 renal) | GI50 (A498 renal) | GI50 (BT-549 breast) | GI50 (HCT-15 colon) | GI50 (KM12 colon) | GI50 (MALME-3M melanoma) | GI50 (NCI-H23 lung) | GI50 (SNB-75 CNS) | GI50 (SW-620 colon) | GI50 (UO-31 renal) |
| --- | --- | --- | --- | --- | --- | --- | --- | --- | --- | --- | --- | --- | --- | --- | --- | --- | --- | --- | --- | --- |
| O=C[C@@H](CO)O[C@H](C=O)c1c[nH]c(=O)[nH]c1=O | 1310 µM | 744 µM | 286 µM | 327 | 362 | 253 µM | 539 µM | 1310 µM | 646 | 287 µM |  |  |  |  |  |  |  |  |  |  |
| CCc1nc(N)nc(N)c1-c1ccc(NCCN)c([N+](=O)[O-])c1 | > 100 µM | > 86.1 µM | > 100 µM | > 100 | > 100 | 40.7 µM | > 100 µM | > 89.7 µM | > 100 | > 100 µM |  |  |  |  |  |  |  |  |  |  |
| C[C@@H]1COCCN1c1cc(C2([S@](C)(=N)=O)CC2)nc(-c2ccnc3[nH]ccc23)n1 | 16.1 µM and > 10 µM | 3.71 µM and 8.78 µM | 27.7 µM and > 10 µM | > 100 | > 100 | 45.1 µM and > 10 µM | 34.3 µM and > 10 µM | 20.3 µM and > 10 µM | > 100 | 32.1 µM and > 10 µM | 1.39 µM and 2.03 µM | 0.43 µM and 1.27 µM | 1.83 µM and 2.92 µM | 4.34 µM and 4.51 µM | 4.21 µM and 3.95 µM | 8.22 µM and 6.49 µM | 1.74 µM and 1.7 µM | 2.29 µM and 2.16 µM | 4.79 µM and > 10 µM | 2.95 µM and 2.04 µM |
| COc1ccc2oc(=O)cc(C(c3ccc[nH]3)c3ccc[nH]3)c2c1 | 11.5 µM | 0.437 µM | 0.389 µM | 11.5 | 11.3 | 17.7 µM | 14 µM | 11.8 µM | 16.8 | 11.9 µM | 0.281 µM | 0.104 µM | < 0.0505 µM | 0.1 µM | 0.104 µM | 0.783 µM | 0.11 µM | 0.123 µM | 0.12 µM | 0.127 µM |
| FC(F)(F)Oc1cccc(-c2cnc3ccc(-c4ccncc4)nn23)c1 | > 100 µM | 2.42 µM | 8.88 µM | > 100 | > 100 | > 100 µM | 17.4 µM | 5.14 µM | > 100 | 4.77 µM | 1.75 µM | 0.365 µM | 1.42 µM | 0.608 µM | 0.662 µM | 2.35 µM | 1.96 µM | 1.73 µM | 0.801 µM | 0.708 µM |
| O=C(O)CCNc1ccccc1C(=O)O | > 100 µM | > 100 µM | > 100 µM | > 100 | > 100 | > 100 µM | > 100 µM | > 100 µM | > 100 | > 100 µM |  |  |  |  |  |  |  |  |  |  |
| Cc1cccc(NC(=O)CCc2ccc(N3C(N)=NC(N)=NC3(C)C)cc2)c1 | > 100 µM | > 100 µM | > 100 µM | > 100 | > 100 | > 100 µM | > 100 µM | > 100 µM | > 100 | > 100 µM | 18.9 µM | > 65.6 µM | 10.9 µM | > 100 µM | 1.24 µM | > 46.9 µM | 6.32 µM |  | 1.13 µM | > 100 µM |
